Source: PubChem BioAssay (NCI)
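Tested at 5 concentrations; 48 h exposure; 96-well plates; endpoints linearly interpolated, else capped at highest concentration. GI50 = concentration required for 50% inhibition of growth. TGI marks complete inhibition of growth.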

Columns and labels:
Assay in all cases: inhibition of tumour cell growth, NCI panel, 48 h
NCI-H23 lung = tested on: NCI-H23 lung
SF-539 CNS = tested on: SF-539 CNS
BT-549 breast = tested on: BT-549 breast
A498 renal = tested on: A498 renal
HT29 colon = tested on: HT29 colon
NCI-H460 lung = tested on: NCI-H460 lung
A549 NSCLC = tested on: A549 NSCLC
ACHN renal = tested on: ACHN renal
SNB-75 CNS = tested on: SNB-75 CNS
EKVX NSCLC = tested on: EKVX NSCLC
786-0 renal = tested on: 786-0 renal
OVCAR-3 ovarian = tested on: OVCAR-3 ovarian
RPMI-8226 leukemia = tested on: RPMI-8226 leukemia
SN12C renal = tested on: SN12C renal
OVCAR-8 ovarian = tested on: OVCAR-8 ovarian
MDA-MB-231 breast = tested on: MDA-MB-231 breast
MOLT-4 leukemia = tested on: MOLT-4 leukemia
HL-60(TB) leukemia = tested on: HL-60(TB) leukemia
SK-OV-3 ovarian = tested on: SK-OV-3 ovarian
NCI-H522 lung = tested on: NCI-H522 lung
SK-MEL-28 melanoma = tested on: SK-MEL-28 melanoma
OVCAR-4 ovarian = tested on: OVCAR-4 ovarian
IGROV1 ovarian = tested on: IGROV1 ovarian
HCC-2998 colon = tested on: HCC-2998 colon
HS 578T breast = tested on: HS 578T breast
SF-268 CNS = tested on: SF-268 CNS
HCT-15 colon = tested on: HCT-15 colon
UACC-257 melanoma = tested on: UACC-257 melanoma
K-562 leukemia = tested on: K-562 leukemia

`CCN1C(=O)N(CC)C2SC(N/N=C/c3ccccc3)=NC21` (stereo not given) was tested. Which TGI (NCI-H23 lung) did it give?
The TGI was greater than 100 µM.

What about the GI50 (SF-539 CNS) of the same molecule?
Its GI50 is 232 nM.

What about the TGI (SF-539 CNS) of the same molecule?
The TGI was 683 nM.

And the GI50 (BT-549 breast)?
The GI50 was 464 nM.

What about the TGI (BT-549 breast) of the same molecule?
Its TGI is 2300 nM.

What about the GI50 (A498 renal) of the same molecule?
Its GI50 is 227 nM.

What about the TGI (A498 renal) of the same molecule?
Its TGI is 785 nM.

What about the GI50 (HT29 colon) of the same molecule?
The GI50 was 320 nM.

What about the TGI (HT29 colon) of the same molecule?
The TGI was greater than 100 µM.

What about the GI50 (NCI-H460 lung) of the same molecule?
Its GI50 is 367 nM.

What about the TGI (NCI-H460 lung) of the same molecule?
Its TGI is greater than 34.2 µM.

What about the GI50 (A549 NSCLC) of the same molecule?
Its GI50 is 606 nM.

And the TGI (A549 NSCLC)?
Its TGI is greater than 100 µM.

What about the GI50 (ACHN renal) of the same molecule?
Its GI50 is 943 nM.

What about the TGI (ACHN renal) of the same molecule?
Its TGI is greater than 100 µM.

What about the GI50 (SNB-75 CNS) of the same molecule?
Its GI50 is 173 nM.

What about the GI50 (EKVX NSCLC) of the same molecule?
The GI50 was 583 nM.

What about the TGI (EKVX NSCLC) of the same molecule?
Its TGI is greater than 100 µM.

And the GI50 (786-0 renal)?
Its GI50 is 583 nM.

And the TGI (786-0 renal)?
Its TGI is 44.5 µM.

What about the GI50 (OVCAR-3 ovarian) of the same molecule?
The GI50 was 395 nM.

And the TGI (OVCAR-3 ovarian)?
Its TGI is greater than 100 µM.

What about the GI50 (RPMI-8226 leukemia) of the same molecule?
Its GI50 is 381 nM.

And the TGI (RPMI-8226 leukemia)?
Its TGI is greater than 100 µM.

And the GI50 (SN12C renal)?
The GI50 was 557 nM.

What about the TGI (SN12C renal) of the same molecule?
The TGI was greater than 100 µM.

What about the GI50 (OVCAR-8 ovarian) of the same molecule?
The GI50 was 473 nM.

What about the TGI (OVCAR-8 ovarian) of the same molecule?
The TGI was greater than 100 µM.

And the GI50 (MDA-MB-231 breast)?
The GI50 was 656 nM.

And the TGI (MDA-MB-231 breast)?
Its TGI is greater than 100 µM.

And the GI50 (MOLT-4 leukemia)?
The GI50 was 502 nM.

And the TGI (MOLT-4 leukemia)?
The TGI was greater than 100 µM.

What about the GI50 (HL-60(TB) leukemia) of the same molecule?
The GI50 was 257 nM.

What about the TGI (HL-60(TB) leukemia) of the same molecule?
Its TGI is 932 nM.

What about the GI50 (SK-OV-3 ovarian) of the same molecule?
The GI50 was 614 nM.

What about the TGI (SK-OV-3 ovarian) of the same molecule?
Its TGI is greater than 100 µM.

And the GI50 (NCI-H522 lung)?
The GI50 was 210 nM.

What about the TGI (NCI-H522 lung) of the same molecule?
The TGI was 735 nM.

What about the GI50 (SK-MEL-28 melanoma) of the same molecule?
The GI50 was 1680 nM.

And the TGI (SK-MEL-28 melanoma)?
Its TGI is greater than 100 µM.

What about the GI50 (OVCAR-4 ovarian) of the same molecule?
The GI50 was greater than 88.9 µM.

And the TGI (OVCAR-4 ovarian)?
The TGI was greater than 100 µM.

And the GI50 (IGROV1 ovarian)?
The GI50 was 622 nM.

What about the TGI (IGROV1 ovarian) of the same molecule?
The TGI was greater than 100 µM.

And the GI50 (HCC-2998 colon)?
The GI50 was 564 nM.

And the TGI (HCC-2998 colon)?
The TGI was 34 µM.

What about the GI50 (HS 578T breast) of the same molecule?
The GI50 was 312 nM.

What about the TGI (HS 578T breast) of the same molecule?
The TGI was greater than 100 µM.

What about the GI50 (SF-268 CNS) of the same molecule?
Its GI50 is 3.41 µM.

And the TGI (SF-268 CNS)?
Its TGI is greater than 100 µM.

What about the GI50 (HCT-15 colon) of the same molecule?
Its GI50 is 349 nM.

And the TGI (HCT-15 colon)?
Its TGI is greater than 100 µM.

And the TGI (UACC-257 melanoma)?
Its TGI is greater than 100 µM.

What about the GI50 (K-562 leukemia) of the same molecule?
Its GI50 is 215 nM.

And the TGI (K-562 leukemia)?
The TGI was greater than 100 µM.
